Source: PubChem BioAssay (NCI)
Several values for one entry are separate records, joined by “and”; a condition that tells them apart may be missing. Identical values can stand only once.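 96-well plates; 48 h exposure; 5 concentrations. Endpoints by linear interpolation between flanking doses. Not reached: highest tested concentration assigned. Here, GI50 denotes the concentration required for 50% inhibition of growth. At the TGI there is no net growth.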

What was measured:
Assay in all cases: NCI tumour cell line growth inhibition, 48 h
DLD-1 colon = system: DLD-1 colon
HOP-62 NSCLC = system: HOP-62 NSCLC
MALME-3M melanoma = system: MALME-3M melanoma
LXFL 529 NSCLC = system: LXFL 529 NSCLC
OVCAR-8 ovarian = system: OVCAR-8 ovarian
CAKI-1 renal = system: CAKI-1 renal
786-0 renal = system: 786-0 renal
KM12 colon = system: KM12 colon
T-47D breast = system: T-47D breast
HS 578T breast = system: HS 578T breast

SMILES | GI50 (DLD-1 colon) | TGI (DLD-1 colon) | GI50 (HOP-62 NSCLC) | TGI (HOP-62 NSCLC) | GI50 (MALME-3M melanoma) | TGI (MALME-3M melanoma) | GI50 (LXFL 529 NSCLC) | TGI (LXFL 529 NSCLC) | GI50 (OVCAR-8 ovarian) | TGI (OVCAR-8 ovarian) | GI50 (CAKI-1 renal) | TGI (CAKI-1 renal) | GI50 (786-0 renal) | TGI (786-0 renal) | GI50 (KM12 colon) | TGI (KM12 colon) | GI50 (T-47D breast) | TGI (T-47D breast) | GI50 (HS 578T breast) | TGI (HS 578T breast)
CCC[CH2][Sn]1([CH2]CCC)[O]Cc2nc(C)ccc2[O]1 | 10.2 µM | 21.9 µM | 10100 nM | 22.5 µM | 5030 nM | 14.5 µM | 2070 nM | 5.75 µM | 9100 nM | 21.7 µM | 2360 nM | 9.03 µM | 5040 nM | 16.8 µM | 11100 nM | 23 µM |  |  |  | 
O=c1[nH]ncc(Br)c1Br |  |  | 5650 nM | 18.1 µM | 1810 nM | 3.71 µM |  |  | 2860 nM | 10.8 µM | 1440 nM | 2.74 µM | 4080 nM | 14.1 µM | 2710 nM | 13.7 µM | 2120 nM | 6.07 µM | 2230 nM | 9.51 µM
COc1ccc(/C=C/CN(C)CCc2ccccc2)cc1OC |  |  |  |  |  | > 100 µM |  | > 100 µM |  | > 100 µM |  |  |  | > 100 µM |  | > 100 µM |  |  |  | 
Nc1nc(Cl)c2ncn(Cc3ccc(C45CC6CC(CC(C6)C4)C5)c(O)c3)c2n1 |  |  | 1850 nM | 3.77 µM | 2220 nM | 16.3 µM |  |  | 2930 nM | 14.1 µM | 1770 nM | 4.8 µM | 6040 nM | 20 µM | 2490 nM | 15.3 µM | 3750 nM | 24.5 µM | 2290 nM | 12.1 µM
O=c1c2cc([N+](=O)[O-])ccc2sc2ccsc12 |  | > 100 µM |  | > 100 µM |  | > 100 µM |  | > 100 µM |  | > 100 µM |  |  |  | > 100 µM |  | > 100 µM |  |  |  | 
CN1CCN(C(=O)OCc2nc3c(N4CCOCC4)nc(Cl)nc3n2C)CC1 |  |  | 1530 nM | 4.92 µM | 1500 nM | 2.87 µM |  |  | 1330 nM | 5.68 µM | 1030 nM | 2.31 µM | 1560 nM | 3 µM | 2050 nM | 6.08 µM | 2010 nM | 4.99 µM | 1640 nM | 5.38 µM
O=C1c2cc(Cl)ccc2S(=O)(=O)c2c(NCCCNCCO)nc3ccccc3c21 |  |  | 4540 nM | 16.7 µM | 1190 nM | 2.56 µM |  |  | 1860 nM | 4.53 µM | 1180 nM | 2.4 µM | 1710 nM | 3.34 µM | 1590 nM | 3.3 µM | 1240 nM | 2.96 µM | 2680 nM | 14.9 µM
CC[C@@H]1C(=O)N(C)c2cnc(Nc3ccc(C(=O)NC4CCN(C)CC4)cc3OC)nc2N1C1CCCC1 |  |  | 5.33 nM and < 10 nM | > 10 µM and 6.35 µM | 1120 nM and 1370 nM | 2.57 µM and 3.39 µM |  |  | 4.14 nM | > 10 µM | 297 nM and 476 nM | > 10 µM and 13.6 µM | 25 nM and 45.1 nM | 1.62 µM and 3.98 µM | 3.46 nM and < 10 nM | > 10 µM and 5.65 µM | 71.8 nM and 157 nM | > 10 µM and 6.27 µM | 8.42 nM and 18.8 nM | 0.394 µM and 0.475 µM
